Experimental findings from patent publication US7598418B2, “Amide derivatives” (Institute of Medicinal Molecular Design, Inc., priority 2002, dated 2009) are described below.

For the assay, the system named is Jurkat cells. Briefly: Jurkat cell proliferation, MTS method: compound alone or combined with bleomycin. The class given is cell-based. The arrangement: key: ┌++┘ indicates observation of remarkable enhancement; ┌+┘ indicates moderated enhancement. Particulars: compound plus bleomycin 5 μg/ml or 10 μg/ml, 36 hours, survival rate vs DMSO control. On the procedure: By using aforementioned synthetic compounds, effects on proliferation of Jurkat cells by sole administration and inhibitory effects on cell proliferation by administration in combination with bleomycin were examined. Materials and methods are as follows. Jurkat cells obtained from Dainippon Pharmaceutical Co. Ltd. were inoculated at about 10,000 cells per well in a 96 well culture plate, and incubated in 10% bovine fetal serum (Irvine Scientific) supplemented with RPMI1640 (ICN) medium in 5% CO2 incubator at 37° C. […] 36 hours after the incubation, the number of living cells was counted by the MTS method.
More specifically, 20 μl of CellTiter96™ AQueous One Solution (Promega) was added per one well, and after the cells were incubated for additional one hour, an absorbance at 490 nm was measured by using a microplate reader. The same culture added with DMSO as a solvent at final concentration of 0.25% was used as a control. The number of cells in the control was considered as 100% survival rate, and for each compound, survival rates by sole administration or a combined administration were calculated. […] In the table, ┌++┘ indicates observation of remarkable enhancement, ┌+┘ indicates moderated enhancement.
For orientation: Formazan colour is commonly taken as a measure of viable cells.
In the case of `COc1ccccc1CNS(=O)(=O)c1cccc2c(O)cccc12` [Compound 2-11, N-(2-Methoxylbenzyl)-5-hydroxynaphthalene-1-sulfonamide], the “Activity (enhancement of inhibitory effect on cell proliferation in combination with bleomycin)” value is given as “+”. In the case of `COc1cccc(CNS(=O)(=O)c2cccc3c(O)cccc23)c1OC` [Compound 2-13, N-(2,3-Dimethoxylbenzyl)-5-hydroxynaphthalene-1-sulfonamide] it was “+”; in that of `O=S(=O)(NCc1cccc2ccccc12)c1cccc2c(O)cccc12` [Compound 2-19, N-(1-Naphthylmethyl)-5-hydroxynaphthalene-1-sulfonamide], “++”. Consider `O=S(=O)(NCC1CCCCC1)c1cccc2c(O)cccc12` [Compound 2-23, N-Cyclohexylmethyl-5-hydroxynaphthalene-1-sulfonamide], for which the “Activity (enhancement of inhibitory effect on cell proliferation in combination with bleomycin)” value was “+”. The same measure for `O=S(=O)(NCCc1ccccc1)c1cccc2c(O)cccc12` [Compound 2-25, N-(2-Phenethyl)-5-hydroxynaphthalene-1-sulfonamide]: “+”; for `CC(=O)Oc1cccc2cc(S(=O)(=O)NCc3ccccc3)ccc12` [Compound 3-1, 5-Acetyloxy-N-benzylnaphthalene-2-sulfonamide]: “+”. In the case of `CC(=O)Oc1cccc2cc(S(=O)(=O)NCc3ccc(C(C)(C)C)cc3)ccc12` [Compound 3-4, 5-Acetyloxy-N-[4-(tert-butyl)benzyl]naphthalene-2-sulfonamide] it was “++”.

Take `CC(=O)Oc1cccc2cc(S(=O)(=O)NCc3ccc(C(F)(F)F)cc3)ccc12` [Compound 3-5, 5-Acetyloxy-N-[4-(trifluoromethyl)benzyl]naphthalene-2-sulfonamide]: the “Activity (enhancement of inhibitory effect on cell proliferation in combination with bleomycin)” value is listed as “+”. In the case of `CC(=O)Oc1cccc2cc(S(=O)(=O)NCc3ccc(C)o3)ccc12` [Compound 3-9, 5-Acetyloxy-N-[(5-methylfuran-2-yl)methyl]naphthalene-2-sulfonamide] it was “+”.

With `O=S(=O)(NCc1ccccc1)c1ccc2c(O)cccc2c1` [Compound 4-1, N-Benzyl-5-hydroxynaphthalene-2-sulfonamide], the “Activity (enhancement of inhibitory effect on cell proliferation in combination with bleomycin)” value is “+”. In the case of `O=[N+]([O-])c1cccc(CNS(=O)(=O)c2ccc3c(O)cccc3c2)c1` [Compound 4-3, N-(3-Nitrobenzyl)-5-hydroxynaphthalene-2-sulfonamide] it was “+”; in that of `CC(C)(C)c1ccc(CNS(=O)(=O)c2ccc3c(O)cccc3c2)cc1` [Compound 4-4, N-[4-(tert-Butyl)benzyl]-5-hydroxynaphthalene-2-sulfonamide], “++”; in that of `O=S(=O)(NCc1ccc(C(F)(F)F)cc1)c1ccc2c(O)cccc2c1` [Compound 4-5, N-[4-(Trifluoromethyl)benzyl]-5-hydroxynaphthalene-2-sulfonamide], “+”.

`COc1cccc(CNS(=O)(=O)c2ccc3c(O)cccc3c2)c1OC` [Compound 4-6, N-(2,3-Dimethoxybenzyl)-5-hydroxynaphthalene-2-sulfonamide]: the “Activity (enhancement of inhibitory effect on cell proliferation in combination with bleomycin)” value is recorded as “+”.

With `Nc1cccc(CNS(=O)(=O)c2ccc3c(O)cccc3c2)c1` [Compound 4-7, N-(3-Aminobenzyl)-5-hydroxynaphthalene-2-sulfonamide], the “Activity (enhancement of inhibitory effect on cell proliferation in combination with bleomycin)” value is on record as “+”.

As for `O=S(=O)(NCc1cccc2ccccc12)c1ccc2c(O)cccc2c1` [Compound 4-8, N-(1-Naphthylmethyl)-5-hydroxynaphthalene-2-sulfonamide], the “Activity (enhancement of inhibitory effect on cell proliferation in combination with bleomycin)” value is “+”.
